Columns and labels:
CFTR G551D mutant = biological target: T1, CFTR G551D mutant (Homo sapiens, UniProt P13569, G551D); assay: YFP-halide influx assay for the CFTR-G551D mutation (HEK293 cells); type: cell-based; conditions: HEK293 cells expressing CFTR G551D and YFP reporter; forskolin 10.67 μM; read-out: EC50 measured by YFP-halide influx assay for the CFTR-G551D
T1 construct: expressed in transfected cells; host or cells: HEK293 (reverse transfection with plasmids)
Source text: 6.3. YFP-Halide Influx Assay for the CFTR-G551D Mutation
The YFP halide influx assay measures the functionality of the cystic fibrosis Transmembrane Conductance regulator (CFTR) channels. The assay is used to evaluate the capacity of compounds to increase the channel opening of existing mutant CFTR channels in the membrane. It makes use of the observation that the yellow fluorescent protein (YFP) variant YFP H148Q, I152L, F47L has its fluorescence substantially quenched by halide ions like Cl^− and I^−. (Galietta et al., 2001)
For this purpose, HEK293-cells are seeded in 96 well plates. During seeding, the cells are reverse-transfected with plasmid vectors that direct the expression of the CFTR G551D mutant and of the YFP reporter. Cells are incubated at 37° C., 5% CO2 for 24 hours so as to allow for sufficient expression of the CFTR protein.
(§1) The I^−-induced quenching of fluorescence is recorded immediately after injection of I^− for 7 seconds. The capacity of a compound to increase the channel opening is directly correlated with the decrease in fluorescence, and is expressed as (1−(fluorescence after 7 seconds (F)/fluorescence before injection (F0))) and an EC50 can be derived from a (1−F/F0) vs compound concentration plot.

CFTR ΔF508 mutant = biological target: T2, CFTR ΔF508 mutant (Homo sapiens, UniProt P13569, DEL508-508); assay: YFP-halide influx assay for the CFTR-ΔF508 mutation (384 well, CFBE41o- cells, FDSS/μCell); type: cell-based; conditions: forskolin 10.67 μM, fluorescence after 36 seconds, read-out: EC50 measured by YFP-halide influx assay for the CFTR-ΔF508
T2 construct: expressed in transfected cells; host or cells: CFBE41o- (adenoviral transduction)
Source text: 6.2. YFP-Halide Influx Assay for the CFTR-ΔF508 Mutation
The YFP halide influx assay measures the functionality of the cystic fibrosis Transmembrane Conductance regulator (CFTR) channels in the cystic fibrosis bronchial epithelium cell line CFBE41o-. The assay is used to evaluate the capacity of compounds to increase the open probability of existing CFTR channels in the membrane. It makes use of the observation that the yellow fluorescent protein (YFP) variant YFP H148Q, I152L has its fluorescence substantially quenched by halide ions like Cl— and I— (Galietta et al., 2001; Nagai et al., 2002).
For this purpose, CFBE410-cells are seeded in 384 well plates (3000 CFBE cells/well). One day after seeding, the CFBE cells are transduced with adenoviral vectors that direct the expression of the CFTR ΔF508 mutant and of the YFP reporter. Cells are incubated at 27° C., 5% CO2 for 24 hours so as to allow for the proper folding and migration to the membrane of the CFTR channel or treated with a CFTR modulator during 24 h at 37° C.
as §1, with “I— induced” for “I^−-induced”, “recorded […]” for “recorded”, “I—” for “I^−”, “2 min on an FDSS/μCell (Hamamatsu).” for “7 seconds.”, “36” for “7”

T1 sequence (P13569 whole entry G551D): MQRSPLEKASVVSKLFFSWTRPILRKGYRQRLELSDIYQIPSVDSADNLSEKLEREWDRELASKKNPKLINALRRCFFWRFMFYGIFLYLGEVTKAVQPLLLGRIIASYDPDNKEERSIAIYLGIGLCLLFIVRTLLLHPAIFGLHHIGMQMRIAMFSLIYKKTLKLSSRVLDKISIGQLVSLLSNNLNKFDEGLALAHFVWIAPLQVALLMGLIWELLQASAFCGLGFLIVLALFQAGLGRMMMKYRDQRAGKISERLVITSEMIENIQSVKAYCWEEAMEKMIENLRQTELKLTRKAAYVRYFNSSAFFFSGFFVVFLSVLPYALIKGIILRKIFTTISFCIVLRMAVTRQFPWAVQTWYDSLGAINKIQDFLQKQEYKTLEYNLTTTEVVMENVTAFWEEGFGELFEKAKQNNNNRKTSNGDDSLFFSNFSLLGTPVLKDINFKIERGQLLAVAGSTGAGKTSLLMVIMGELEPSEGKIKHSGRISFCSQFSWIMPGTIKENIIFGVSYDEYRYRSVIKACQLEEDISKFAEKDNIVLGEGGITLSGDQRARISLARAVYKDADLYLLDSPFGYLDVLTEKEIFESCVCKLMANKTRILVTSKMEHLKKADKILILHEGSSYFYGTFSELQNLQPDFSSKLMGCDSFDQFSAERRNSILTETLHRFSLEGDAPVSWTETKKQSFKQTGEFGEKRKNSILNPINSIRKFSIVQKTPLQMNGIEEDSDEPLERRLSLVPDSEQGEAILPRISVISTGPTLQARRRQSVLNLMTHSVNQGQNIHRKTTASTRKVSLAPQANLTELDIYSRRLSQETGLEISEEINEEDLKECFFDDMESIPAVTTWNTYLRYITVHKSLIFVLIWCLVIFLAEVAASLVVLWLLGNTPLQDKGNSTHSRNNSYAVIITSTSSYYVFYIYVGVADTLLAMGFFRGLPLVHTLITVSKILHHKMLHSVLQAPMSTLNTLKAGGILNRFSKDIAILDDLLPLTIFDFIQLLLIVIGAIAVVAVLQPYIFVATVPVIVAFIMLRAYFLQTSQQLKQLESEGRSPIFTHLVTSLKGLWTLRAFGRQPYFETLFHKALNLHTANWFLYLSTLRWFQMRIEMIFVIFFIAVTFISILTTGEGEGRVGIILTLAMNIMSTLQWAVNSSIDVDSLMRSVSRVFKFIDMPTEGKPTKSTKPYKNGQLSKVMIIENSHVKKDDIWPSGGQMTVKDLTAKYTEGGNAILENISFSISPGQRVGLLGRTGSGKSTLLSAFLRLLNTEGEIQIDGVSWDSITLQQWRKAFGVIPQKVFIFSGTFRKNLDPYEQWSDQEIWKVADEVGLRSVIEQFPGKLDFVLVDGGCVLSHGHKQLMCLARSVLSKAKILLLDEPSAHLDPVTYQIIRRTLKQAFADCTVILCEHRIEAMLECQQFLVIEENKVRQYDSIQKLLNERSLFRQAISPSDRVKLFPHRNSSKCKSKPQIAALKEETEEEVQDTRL
T2 sequence (P13569 with tags, fused parts or gaps DEL508-508): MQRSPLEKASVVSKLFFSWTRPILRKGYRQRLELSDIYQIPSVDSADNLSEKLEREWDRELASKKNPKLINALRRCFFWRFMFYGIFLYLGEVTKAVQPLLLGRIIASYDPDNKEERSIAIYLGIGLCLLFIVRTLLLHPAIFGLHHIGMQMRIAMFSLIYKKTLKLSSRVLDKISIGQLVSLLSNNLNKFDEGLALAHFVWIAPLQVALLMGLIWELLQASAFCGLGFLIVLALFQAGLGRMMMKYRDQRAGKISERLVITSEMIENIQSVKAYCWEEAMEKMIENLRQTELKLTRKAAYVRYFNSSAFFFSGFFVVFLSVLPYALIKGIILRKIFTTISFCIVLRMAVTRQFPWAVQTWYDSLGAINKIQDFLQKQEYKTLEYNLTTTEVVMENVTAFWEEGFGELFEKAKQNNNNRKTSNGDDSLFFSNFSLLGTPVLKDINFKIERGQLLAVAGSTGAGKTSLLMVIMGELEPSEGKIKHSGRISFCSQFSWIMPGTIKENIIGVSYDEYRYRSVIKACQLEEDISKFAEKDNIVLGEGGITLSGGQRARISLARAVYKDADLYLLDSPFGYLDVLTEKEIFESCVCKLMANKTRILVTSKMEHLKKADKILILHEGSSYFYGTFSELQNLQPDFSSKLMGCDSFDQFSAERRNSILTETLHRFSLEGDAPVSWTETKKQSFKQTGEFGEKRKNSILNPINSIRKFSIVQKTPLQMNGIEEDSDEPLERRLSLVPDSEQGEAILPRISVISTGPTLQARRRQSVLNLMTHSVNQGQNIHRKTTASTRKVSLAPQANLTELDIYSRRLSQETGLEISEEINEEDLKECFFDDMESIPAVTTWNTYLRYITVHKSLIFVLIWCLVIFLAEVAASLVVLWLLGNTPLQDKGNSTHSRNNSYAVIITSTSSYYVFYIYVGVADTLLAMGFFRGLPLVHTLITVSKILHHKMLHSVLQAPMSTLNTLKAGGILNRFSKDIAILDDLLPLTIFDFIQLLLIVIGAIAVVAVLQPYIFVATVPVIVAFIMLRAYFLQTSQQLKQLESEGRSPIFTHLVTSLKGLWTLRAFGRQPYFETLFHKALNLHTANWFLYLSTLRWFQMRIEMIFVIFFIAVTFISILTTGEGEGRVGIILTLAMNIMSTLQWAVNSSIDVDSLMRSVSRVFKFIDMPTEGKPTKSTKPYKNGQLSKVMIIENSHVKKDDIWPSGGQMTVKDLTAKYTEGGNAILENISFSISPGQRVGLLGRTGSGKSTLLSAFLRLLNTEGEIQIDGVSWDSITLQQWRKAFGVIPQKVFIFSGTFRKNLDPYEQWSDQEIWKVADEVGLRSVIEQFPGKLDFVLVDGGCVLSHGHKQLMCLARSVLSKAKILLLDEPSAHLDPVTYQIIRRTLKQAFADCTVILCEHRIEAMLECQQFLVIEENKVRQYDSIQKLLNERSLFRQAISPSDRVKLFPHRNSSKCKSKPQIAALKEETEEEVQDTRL

Row | EC50 (CFTR G551D mutant) [µM] | EC50 (CFTR ΔF508 mutant) [µM] | Compound
1 | 5.55 | 0.0925 | CC(C)C(O)C(=O)Nc1sc2c(c1C(N)=O)CC(C)(C)OC2(C)C (single isomer, unassigned) [Compound 51, 2-[[2-hydroxy-3-methyl-butanoyl]amino]-5,5,7,7-tetramethyl-4H-thieno[2,3-c]pyran-3-carboxamide]
2 | 3.33 | 0.0974 | CC1(C)Cc2c(sc(NC(=O)C(CO)CC3CC3)c2C(N)=O)C(C)(C)O1 (single isomer, unassigned) [Compound 96, 2-[[2-(cyclopropylmethyl)-3-hydroxy-propanoyl]amino]-5,5,7,7-tetramethyl-4H-thieno[2,3-c]pyran-3-carboxamide]
3 | 2.78 | 0.113 | CC1(C)Cc2c(sc(NC(=O)C(CO)CC3CC3)c2C(N)=O)C(C)(C)O1 (single isomer, unassigned) [Compound 97, 2-[[2-(cyclopropylmethyl)-3-hydroxy-propanoyl]amino]-5,5,7,7-tetramethyl-4H-thieno[2,3-c]pyran-3-carboxamide]
4 | 3.26 | 0.00432 | CC(C)(C)CC(O)C(=O)Nc1sc2c(c1C(N)=O)CC(C)(C)OC2(C)C (single isomer, unassigned) [Compound 109, 2-[[2-hydroxy-4,4-dimethyl-pentanoyl]amino]-5,5,7,7-tetramethyl-4H-thieno[2,3-c]pyran-3-carboxamide]
5 | 3.1 | 0.0239 | CC1(C)Cc2c(sc(NC(=O)c3n[nH]cc3C3COCCO3)c2C(N)=O)C(C)(C)O1 (single isomer, unassigned) [Compound 111, N-(3-carbamoyl-5,5,7,7-tetramethyl-4H-thieno[2,3-c]pyran-2-yl)-4-[1,4-dioxan-2-yl]-1H-pyrazole-3-carboxamide]
6 | 1.83 | 0.0344 | CC1(C)Cc2c(sc(NC(=O)c3n[nH]cc3C3COCCO3)c2C(N)=O)C(C)(C)O1 (single isomer, unassigned) [Compound 112, N-(3-carbamoyl-5,5,7,7-tetramethyl-4H-thieno[2,3-c]pyran-2-yl)-4-[1,4-dioxan-2-yl]-1H-pyrazole-3-carboxamide]
7 | 4.71 | 0.118 | CC1(C)Cc2c(sc(NC(=O)C3CC(F)(F)C3)c2C(N)=O)C(C)(C)O1 [Compound 47, 2-[(3,3-difluorocyclobutanecarbonyl)amino]-5,5,7,7-tetramethyl-4H-thieno[2,3-c]pyran-3-carboxamide]
8 | 4.57 | 0.0666 | CC1(C)Cc2c(sc(NC(=O)C3CC3(F)F)c2C(N)=O)C(C)(C)O1 (centres unmarked) [Compound 48, 2-[(2,2-difluorocyclopropanecarbonyl)amino]-5,5,7,7-tetramethyl-4H-thieno[2,3-c]pyran-3-carboxamide]
9 | 5.67 | 0.125 | CC1(C)Cc2c(sc(NC(=O)c3cn[nH]c3)c2C(N)=O)C(C)(C)O1 [Compound 49, N-(3-carbamoyl-5,5,7,7-tetramethyl-4H-thieno[2,3-c]pyran-2-yl)-1H-pyrazole-4-carboxamide]
10 | 3.33 | 0.00991 | CCC(O)C(=O)Nc1sc2c(c1C(N)=O)CC(C)(C)OC2(C)C (centres unmarked) [Compound 53, 2-(2-hydroxybutanoylamino)-5,5,7,7-tetramethyl-4H-thieno[2,3-c]pyran-3-carboxamide]
11 | 3.33 | 0.00874 | CC(O)C1(C(=O)Nc2sc3c(c2C(N)=O)CC(C)(C)OC3(C)C)CC1 (centres unmarked) [Compound 59, 2-[[1-(1-hydroxyethyl)cyclopropanecarbonyl]amino]-5,5,7,7-tetramethyl-4H-thieno[2,3-c]pyran-3-carboxamide]
12 | 6.67 | 0.0184 | CC1(C)Cc2c(sc(NC(=O)C(O)C3CC3)c2C(N)=O)C(C)(C)O1 (centres unmarked) [Compound 60, 2-[(2-cyclopropyl-2-hydroxy-acetyl)amino]-5,5,7,7-tetramethyl-4H-thieno[2,3-c]pyran-3-carboxamide]
13 | 4.16 | 0.188 | CC(O)c1cc(C(=O)Nc2sc3c(c2C(N)=O)CC(C)(C)OC3(C)C)n[nH]1 (centres unmarked) [Compound 61, 5-(1-Hydroxy-ethyl)-1H-pyrazole-3-carboxylic acid (3-carbamoyl-5,5,7,7-tetramethyl-4,7-dihydro-5H-thieno[2,3-c]pyran-2-yl)-amide]
14 | 3.33 | 0.301 | CCOC(=O)C1CC1C(=O)Nc1sc2c(c1C(N)=O)CC(C)(C)OC2(C)C (centres unmarked) [Compound 62, 2-(3-Carbamoyl-5,5,7,7-tetramethyl-4,7-dihydro-5H-thieno[2,3-c]pyran-2-ylcarbamoyl)-cyclopropanecarboxylic acid ethyl ester]
15 | 1.19 | 0.0663 | COC/C=C/c1c[nH]nc1C(=O)Nc1sc2c(c1C(N)=O)CC(C)(C)OC2(C)C [Compound 63, N-(3-carbamoyl-5,5,7,7-tetramethyl-4H-thieno[2,3-c]pyran-2-yl)-4-[(E)-3-methoxyprop-1-enyl]-1H-pyrazole-3-carboxamide]
16 | 2.9 | 0.167 | CC1(C)Cc2c(sc(NC(=O)c3cc(C(C)(C)O)[nH]n3)c2C(N)=O)C(C)(C)O1 [Compound 64, N-(3-carbamoyl-5,5,7,7-tetramethyl-4H-thieno[2,3-c]pyran-2-yl)-5-(1-hydroxy-1-methyl-ethyl)-1H-pyrazole-3-carboxamide]
17 | 1.56 | 0.027 | COCCCc1c[nH]nc1C(=O)Nc1sc2c(c1C(N)=O)CC(C)(C)OC2(C)C [Compound 65, N-(3-carbamoyl-5,5,7,7-tetramethyl-4H-thieno[2,3-c]pyran-2-yl)-4-(3-methoxypropyl)-1H-pyrazole-3-carboxamide]
18 | 3.33 | 0.084 | CC1(C)Cc2c(sc(NC(=O)CO)c2C(N)=O)C(C)(C)O1 [Compound 66, 2-[(2-hydroxyacetyl)amino]-5,5,7,7-tetramethyl-4H-thieno[2,3-c]pyran-3-carboxamide]
19 | 3.33 | 0.0427 | CC(C)C(O)CC(=O)Nc1sc2c(c1C(N)=O)CC(C)(C)OC2(C)C (centres unmarked) [Compound 67, 2-[(3-hydroxy-4-methyl-pentanoyl)amino]-5,5,7,7-tetramethyl-4H-thieno[2,3-c]pyran-3-carboxamide]
20 | 3.33 | 0.06 | CC1(C)Cc2c(sc(NC(=O)CC(O)C3CC3)c2C(N)=O)C(C)(C)O1 (centres unmarked) [Compound 68, 2-[(3-cyclopropyl-3-hydroxy-propanoyl)amino]-5,5,7,7-tetramethyl-4H-thieno[2,3-c]pyran-3-carboxamide]
21 | 3.33 | 0.0342 | CC1(C)Cc2c(sc(NC(=O)CC(O)C(F)(F)F)c2C(N)=O)C(C)(C)O1 (centres unmarked) [Compound 69, 5,5,7,7-tetramethyl-2-[(4,4,4-trifluoro-3-hydroxy-butanoyl)amino]-4H-thieno[2,3-c]pyran-3-carboxamide]
22 | 3.33 | 0.176 | CC(CO)C(=O)Nc1sc2c(c1C(N)=O)CC(C)(C)OC2(C)C (centres unmarked) [Compound 70, 2-[(3-hydroxy-2-methyl-propanoyl)amino]-5,5,7,7-tetramethyl-4H-thieno[2,3-c]pyran-3-carboxamide]
23 | 0.57 | 0.0208 | CC1(C)Cc2c(sc(NC(=O)c3n[nH]cc3C#N)c2C(N)=O)C(C)(C)O1 [Compound 73, N-(3-carbamoyl-5,5,7,7-tetramethyl-4H-thieno[2,3-c]pyran-2-yl)-4-cyano-1H-pyrazole-3-carboxamide]
24 | 3.33 | 0.0826 | CC(C)C(CO)C(=O)Nc1sc2c(c1C(N)=O)CC(C)(C)OC2(C)C (centres unmarked) [Compound 74, 2-[[2-(hydroxymethyl)-3-methyl-butanoyl]amino]-5,5,7,7-tetramethyl-4H-thieno[2,3-c]pyran-3-carboxamide]
25 | 3.35 | 0.00639 | CC(O)C1(C(=O)Nc2sc3c(c2C(N)=O)CC(C)(C)OC3(C)C)CC1 (centres unmarked) [Compound 78, 2-[[1-[1-hydroxyethyl]cyclopropanecarbonyl]amino]-5,5,7,7-tetramethyl-4H-thieno[2,3-c]pyran-3-carboxamide]

From patent US9351955B2, “Compounds and pharmaceutical compositions thereof for the treatment of cystic fibrosis” (Galapagos NV, priority 2013, dated 2016)
